From US20210361639A1, “SOLID COMPOSITIONS OF ACTIVES, PROCESSES FOR PREPARING SAME AND USES OF SUCH SOLID COMPOSITIONS” (The University of Liverpool, priority 2018, published 2021) come the findings set out here.

The nature of data set [1]: Single oral dose pharmacokinetics of atazanavir. The arrangement: species or system Wistar rats. The following applies: male, Wistar, rat, in vivo, 10 mg/kg. The procedure: All animal work was conducted in accordance with the Animals (Scientific Procedures) Act 1986 (ASPA) implemented by the UK Home Office. The rodents were housed with environmental enrichment and a 12 h light/dark cycle at 21° C.±2° C. Free access to food and water was provided at all times during acclimatisation. Following 7-days acclimatisation, adult male Wistar rats (280-330 g) were fasted overnight and dosed with 10 mg Kg^−1 atazanavir at 10 μCi/mg, either as a conventional [^3H]-atazanavir preparation (<5% DMSO) or as a [^3H]-^ATVSDNF68/T20 nanodispersion using a 7-cm curved gavage needle. Subsequently, blood samples were collected (0.2 ml) at 1, 2, 2.5, 3, 6 and 12 h post-dosing from the tail vein. At 24 h, the rats were sacrificed using cardiac puncture under terminal anaesthesia (isoflurane/oxygen), followed by immediate exsanguination of blood from the heart. Subsequently, an overdose of sodium pentobarbitone was administered using the same in situ puncture needle. Blood samples were collected in heparinised Eppendorf tubes and centrifuged at 3,000 rpm for 5 min. The plasma layer was collected and stored at −20° C. prior to analysis.

A short description of data set [2]: Multiple oral dose (every 6 hours) pharmacokinetics of atazanavir. The format is in vivo, Wistar rats. The following applies: multiple oral dose 10 mg/kg atazanavir every 6 hours, steady state, rat plasma. How it is done: All animal work was conducted in accordance with the Animals (Scientific Procedures) Act 1986 (ASPA) implemented by the UK Home Office. The rodents were housed with environmental enrichment and a 12 h light/dark cycle at 21° C.±2° C. Free access to food and water was provided at all times. Following 7-days acclimatisation, adult male Wistar rats (280-330 g) were dosed with 10 mg Kg^−1 atazanavir at 5 μCi/mg, either as a conventional [^3H]-atazanavir preparation (<5% DMSO) or as a [^3H]^ATVSDNF68/T20 nanodispersion using a 7-cm curved gavage needle. Subsequent doses were administered at 6 hour intervals. Subsequently, trough blood samples were collected (0.15 ml) every 12 h post-dosing from the lateral tail vein. Steady state PK blood samples were taken at 60, 61, 62, 62.5, 63, 64 and 66 h post first dose. At 66 h, the rats were sacrificed using cardiac puncture under terminal anaesthesia (isoflurane/oxygen), followed by immediate exsanguination of blood from the heart. Subsequently, an overdose of sodium pentobarbitone was administered using the same in situ puncture needle. Blood samples were collected in heparinised Eppendorf tubes and centrifuged at 3,000 rpm for 5 min. The plasma layer was collected and stored at −20° C. prior to analysis.

Structures are written as SMILES.

The AUC(0-t) is exposure summed from dosing to a finite time, without extrapolation to infinity. A low value points to less exposure. What is called Cmax is the highest concentration seen after dosing. For orientation: Tmax means the time from dosing to the highest level. As for `COC(=O)N[C@H](C(=O)N[C@@H](Cc1ccccc1)[C@@H](O)CN(Cc1ccc(-c2ccccn2)cc1)NC(=O)[C@@H](NC(=O)OC)C(C)(C)C)C(C)(C)C` [Aqueous atazanavir, atazanavir], in data set [1], the AUC(0-t) was found to be 60400 ng·h/mL, the concentration peaked (Cmax) at 4870 ng/mL, the Cmin was found to be 1986 ng/mL and the time to peak (Tmax) stood at 2 h. For the same compound, in data set [2] (male, Wistar), the AUC(0-t) is 15500 ng·h/mL, the Cmax was 3090 ng/mL and the Tmax was determined as 1 h. Also, the Cmin in data set [2] is 1799 ng/mL.
